Activity calls are given as the source filed them. The rule behind the calls is not given here.
Columns and labels:
[1] = Inhibition of Aspergillus niger amyloglucosidase using starch as substrate after 10 mins by Miller method
[2] = biological target: T1, Alpha-galactosidase (Escherichia coli) (UniProt P16551); test: Inhibition of Escherichia coli alpha-galactosidase at 1 mM using p-nitrophenyl-alpha-D-galactopyranoside as substrate preincubated for 1 hr followed by substrate addition measured after 10 mins by spectrophotometric method
T1 sequence (whole entry): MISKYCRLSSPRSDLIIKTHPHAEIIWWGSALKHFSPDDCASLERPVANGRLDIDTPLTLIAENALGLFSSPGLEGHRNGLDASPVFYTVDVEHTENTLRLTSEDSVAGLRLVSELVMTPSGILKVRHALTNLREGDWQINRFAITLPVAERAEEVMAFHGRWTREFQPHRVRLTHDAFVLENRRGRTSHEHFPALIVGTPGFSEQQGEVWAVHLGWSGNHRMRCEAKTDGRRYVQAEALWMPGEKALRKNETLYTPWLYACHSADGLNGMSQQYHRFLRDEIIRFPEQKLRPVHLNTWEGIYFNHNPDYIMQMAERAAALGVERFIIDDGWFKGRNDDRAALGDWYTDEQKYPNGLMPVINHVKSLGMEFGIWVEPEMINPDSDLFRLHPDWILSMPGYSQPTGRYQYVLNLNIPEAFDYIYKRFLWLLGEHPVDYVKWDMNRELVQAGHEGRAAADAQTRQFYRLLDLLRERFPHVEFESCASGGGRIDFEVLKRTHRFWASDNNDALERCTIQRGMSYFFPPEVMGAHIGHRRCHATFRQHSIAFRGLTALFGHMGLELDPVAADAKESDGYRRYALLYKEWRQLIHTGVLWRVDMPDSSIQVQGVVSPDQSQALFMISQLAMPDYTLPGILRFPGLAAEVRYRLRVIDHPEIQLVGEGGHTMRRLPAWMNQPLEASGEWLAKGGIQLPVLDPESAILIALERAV

Alpha-mannosidase = biological target: T2, Alpha-mannosidase (Canavalia ensiformis, UniProt C0HJB3); test: Inhibition of Canavalia ensiformis alpha-mannosidase using p-nitrophenyl-alpha-D-mannopyranoside as substrate preincubated for 1 hr followed by substrate addition measured after 10 mins by spectrophotometric method
T2 sequence (C0HJB3 whole entry): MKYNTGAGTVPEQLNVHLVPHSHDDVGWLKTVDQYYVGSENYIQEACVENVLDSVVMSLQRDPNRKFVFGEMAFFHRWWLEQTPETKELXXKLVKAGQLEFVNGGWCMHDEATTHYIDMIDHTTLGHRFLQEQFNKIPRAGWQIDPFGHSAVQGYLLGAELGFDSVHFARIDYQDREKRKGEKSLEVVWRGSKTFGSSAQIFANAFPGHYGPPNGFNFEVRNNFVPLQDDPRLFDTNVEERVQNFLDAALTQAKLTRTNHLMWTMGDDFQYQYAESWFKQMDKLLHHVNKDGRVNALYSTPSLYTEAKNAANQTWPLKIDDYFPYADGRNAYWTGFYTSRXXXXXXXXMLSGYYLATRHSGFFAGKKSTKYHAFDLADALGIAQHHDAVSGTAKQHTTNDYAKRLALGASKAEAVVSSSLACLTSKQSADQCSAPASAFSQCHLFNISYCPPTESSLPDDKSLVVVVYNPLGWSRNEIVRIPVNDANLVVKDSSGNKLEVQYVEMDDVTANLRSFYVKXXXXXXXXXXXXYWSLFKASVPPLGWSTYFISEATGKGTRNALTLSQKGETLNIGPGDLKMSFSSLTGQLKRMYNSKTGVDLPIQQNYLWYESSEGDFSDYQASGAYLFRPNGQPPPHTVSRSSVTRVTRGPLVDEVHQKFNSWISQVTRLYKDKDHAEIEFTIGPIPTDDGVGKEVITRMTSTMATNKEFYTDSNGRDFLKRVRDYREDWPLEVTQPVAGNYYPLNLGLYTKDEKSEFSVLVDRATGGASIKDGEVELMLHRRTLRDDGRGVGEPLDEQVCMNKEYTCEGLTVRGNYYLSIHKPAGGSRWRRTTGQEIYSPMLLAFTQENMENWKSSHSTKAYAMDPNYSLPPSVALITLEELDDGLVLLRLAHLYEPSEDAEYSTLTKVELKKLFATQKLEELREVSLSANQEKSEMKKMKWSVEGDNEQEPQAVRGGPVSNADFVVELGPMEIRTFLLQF

Alpha-glucosidase = biological target: T3, Alpha-glucosidase (Aspergillus niger, UniProt P56526); test: Inhibition of Aspergillus niger alpha-glucosidase using p-nitrophenyl-alpha-D-glucopyranoside as substrate preincubated for 1 hr followed by substrate addition measured after 10 mins by spectrophotometric method
T3 sequence (P56526 whole entry): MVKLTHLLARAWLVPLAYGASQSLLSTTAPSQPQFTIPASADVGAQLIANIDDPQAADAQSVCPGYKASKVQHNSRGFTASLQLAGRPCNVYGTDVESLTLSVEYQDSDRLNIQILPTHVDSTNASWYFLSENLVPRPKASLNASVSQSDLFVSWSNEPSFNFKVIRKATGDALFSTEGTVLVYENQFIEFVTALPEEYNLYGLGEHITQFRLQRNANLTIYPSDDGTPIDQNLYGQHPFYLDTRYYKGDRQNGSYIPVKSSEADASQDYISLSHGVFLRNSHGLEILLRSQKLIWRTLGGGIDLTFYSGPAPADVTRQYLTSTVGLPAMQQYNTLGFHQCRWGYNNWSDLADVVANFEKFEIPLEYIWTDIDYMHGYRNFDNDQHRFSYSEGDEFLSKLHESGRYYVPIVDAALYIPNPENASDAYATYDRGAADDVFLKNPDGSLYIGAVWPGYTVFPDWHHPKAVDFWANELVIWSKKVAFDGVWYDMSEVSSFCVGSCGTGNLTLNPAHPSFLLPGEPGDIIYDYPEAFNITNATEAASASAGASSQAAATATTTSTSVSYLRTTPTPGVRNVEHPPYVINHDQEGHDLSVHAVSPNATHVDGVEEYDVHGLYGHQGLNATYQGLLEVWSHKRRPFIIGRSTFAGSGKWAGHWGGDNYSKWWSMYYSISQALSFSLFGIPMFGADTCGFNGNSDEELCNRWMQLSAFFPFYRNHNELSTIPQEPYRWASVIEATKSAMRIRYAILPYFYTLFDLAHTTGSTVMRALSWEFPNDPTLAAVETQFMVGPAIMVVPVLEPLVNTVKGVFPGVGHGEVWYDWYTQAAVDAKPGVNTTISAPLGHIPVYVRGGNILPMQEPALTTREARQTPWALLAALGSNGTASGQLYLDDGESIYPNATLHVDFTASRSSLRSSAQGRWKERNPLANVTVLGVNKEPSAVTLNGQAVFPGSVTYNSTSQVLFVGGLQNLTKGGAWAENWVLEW

Aspergillus niger = test: Inhibition of Aspergillus niger amyloglucosidase at 1 mM using starch as substrate after 10 mins by Miller method
Alpha-galactosidase = biological target: T4, Alpha-galactosidase (Escherichia coli, UniProt P16551); test: Inhibition of Escherichia coli alpha-galactosidase using p-nitrophenyl-alpha-D-galactopyranoside as substrate preincubated for 1 hr followed by substrate addition measured after 10 mins by spectrophotometric method
T4 sequence (P16551 whole entry): T1 sequence (whole entry)

| IC50 [1] | inhibition [2] | IC50 (Alpha-mannosidase) | IC50 (Alpha-glucosidase) | inhibition (Aspergillus niger) | IC50 (Alpha-galactosidase) | Structure (SMILES) |
| --- | --- | --- | --- | --- | --- | --- |
| 817 µM | inactive | 200 µM | 89.4 µM |  |  | OC[C@@H]1N[C@H](CO)[C@@H]1O |
| 201 µM | inactive |  | 57.1 µM |  |  | OCCN1C[C@H](O)[C@@H](O)[C@H](O)[C@H]1CO [MIGLITOL] |
|  | inactive | 83.8 µM | 64.6 µM | inactive |  | CN1[C@H](C(=O)O)[C@H](O)[C@@H]1CO |
| 78.2 µM |  | 76 µM | 53.7 µM |  | 54.6 µM | OC[C@@H]1N[C@H]([C@@H](O)CO)[C@@H]1O |

— ChEMBL document CHEMBL4177631, “Polyhydroxylated azetidine iminosugars: Synthesis, glycosidase inhibitory activity and molecular docking studies” (Bioorg Med Chem Lett, 2017)
